SMILES strings stand for the structures. pIC50: −log10 of the molar value.

The values that follow come from patent US11253497B2, “Use of derivatives of polyunsaturated fatty acids as medicaments” (Lipopharma Therapeutics, S.L., priority 2009, dated 2022).

Assay [1] can be described thus: Serum cholesterol, triglycerides and glucose in SHR rats (colorimetric). Type of assay: in vivo, rat. To be noted: 200 mg/kg daily p.o., 28 days, untreated rats 100%. As for the experimental part: In a separate experimental series, SHR rats were treated with various compounds of the present invention (200 mg/kg daily, 28 days, p.o.) and the levels of cholesterol, triglycerides and glucose in serum were measured by colorimetric methods. It was observed that these compounds induce significant (and in many cases marked) reductions in the levels of these metabolites (Table 16).
Values are expressed as percent, and in untreated (control) rats values were always considered as 100%.

Assay [2] has as its system apolipoprotein AI (apoA-I). Nature of the assay: Levels of apoA-I in SHR rats (RT-PCR). Type of assay: in vivo, rat. As to conditions: 200 mg/kg day p.o., 30 days, before treatment 100%. The method, then:
(§1) In a separate experimental series, it was studied the effect of D-PUFA molecules of the present invention on blood pressure of SHR rats. In these animals both, blood pressure and levels of apolipoprotein AI (apoA-I) were measured. For these experiments Spontaneously Hypertensive Rats (SHR) were treated for 30 days with vehicle (water control) or compounds of the invention (200 mg/kg day, p.o.). At the end of this period, the animals' blood pressure and serum levels of apoA-I were measured. […] For these experiments, non-invasive methods for determining blood pressure (cuff-tail method) and gene expression for apoA-I (RT-PCR) described in the literature (Terés et al., 2008) were used. The usefulness of the molecules of the present invention for the treatment of cardiovascular diseases is reinforced by its capacity for reducing the levels of serum cholesterol and triglycerides (see below).
(§2) The average values of SHR before treatment were 214 mmHg and 100% respectively.

Another assay has as its system lung cancer cells A549. Nature of the assay: Growth of lung cancer cells A549 (IC50). As to conditions: 72 hours of incubation. Type of assay: cell-based, human. The method, then: (§3) For the experiments shown in FIG. 1, cultured human Non Small Cell Lung Cancer cells (A549) in RPMI 1640 were used, supplemented with 10% foetal bovine serum and antibiotics, at 37° C. and 5% CO2. […] After treatment, cell count was performed and the study of the mechanisms involved in the antitumor activity of compounds was evaluated by flow cytometry. […] These values correspond to averages of three independent experiments.
(§4) These charts show the antitumor efficacy of the compounds of this invention against the growth of breast cancer cells, brain (glioma), and lung cancer. […] The other experimental conditions are identical to those described in the preceding paragraph.

Assay [3] relates to brain cancer cell (glioma) U118. As to the kind of experiment: Brain cancer (glioma) U118 cell growth. Type of assay: cell-based. As to conditions: 72 hours of incubation. As for the experimental part:
For the experiments shown in FIG. 1, cultured human Non Small Cell Lung Cancer cells (A549) in RPMI 1640 were used, supplemented with 10% foetal bovine serum and antibiotics, at 37° C. and 5% CO2. Cells were maintained in culture for 48 hours in the presence or absence of D-PUFAs and PUFAs indicated in Table 2 at a concentration of 250 µM. After treatment, cell count was performed and the study of the mechanisms involved in the antitumor activity of compounds was evaluated by flow cytometry. […] These values correspond to averages of three independent experiments.
as §4

Assay [4] deals with Spontaneously Hypertensive Rats (SHR). As to the kind of experiment: Blood pressure of SHR rats (cuff-tail method). Type of assay: in vivo, rat. As to conditions: 200 mg/kg day p.o., 30 days, before treatment 214 mmHg. The method, then:
as §1, §2

Assay [5] deals with breast cancer cells MDA-MB-231. As to the kind of experiment: Growth of breast cancer cells MDA-MB-231. Type of assay: cell-based. As to conditions: 72 hours of incubation. The method, then:
as §3, §4

With `CCCCCC=CCC=CCC=CCCCC(C)C(=O)OCC` (stereo not shown) [183N2], in assay [1], the “Cholesterol in serum (top number)” value is 89%, the “Glucose in serum (bottom number)” value turned out to be 92% and the “Triglycerides in serum (central number)” value was 85%. The “Levels of apoA-I” value in assay [2] was 296%. In addition, the pIC50 with lung cancer cells A549 was 3.59. For the same molecule, the pIC50 in assay [3] was 3.41. Moreover, the Blood pressure in assay [4] is on record as 194 mm Hg. The same molecule had a pIC50 in assay [5] of 3.73.

Turning to `CCC=CCC=CCC=CCC=CCC=CCCC(C)C(=O)OCC` (stereo not shown) [205N1], in assay [1], the “Cholesterol in serum (top number)” value was 80%, the “Glucose in serum (bottom number)” value is 86% and the “Triglycerides in serum (central number)” value was found to be 73%. For the same molecule, the “Levels of apoA-I” value in assay [2] is 293%. In the assay on lung cancer cells A549, this molecule gave a pIC50 of 3.42. The pIC50 in assay [3] was 3.29. For the same molecule, the Blood pressure in assay [4] amounted to 189 mm Hg. Besides, in assay [5], the pIC50 is 3.54.

With `CCCCCC=CCC=CCC=CCC=CCCC(C)C(=O)OCC` (stereo not shown) [204N1], in assay [1], the “Cholesterol in serum (top number)” value is given as 82%, the “Glucose in serum (bottom number)” value is recorded as 82% and the “Triglycerides in serum (central number)” value was 81%. Besides, the “Levels of apoA-I” value in assay [2] was found to be 174%. The same molecule had a pIC50 in the assay with lung cancer cells A549 of 3.38. Further, the negative logarithm of the IC50 (pIC50) in assay [3] was 3.50. Also, in assay [4], the Blood pressure was 201 mm Hg. The molecule further had a pIC50 in assay [5] of 3.56.

`CCC=CCC=CCC=CCCCCCCC(C)C(=O)OCC` (stereo not shown) [183N1]: in assay [1], the “Cholesterol in serum (top number)” value came out at 72%, the “Glucose in serum (bottom number)” value came out at 84% and the “Triglycerides in serum (central number)” value worked out at 69%. In addition, in assay [2], the “Levels of apoA-I” value worked out at 189%. In the assay on lung cancer cells A549, this molecule gave a pIC50 of 3.42. This molecule gave a negative-log IC50 (pIC50) in assay [3] of 3.49. This molecule yielded a Blood pressure in assay [4] of 208 mm Hg. For the same molecule, in assay [5], the pIC50 is 3.56.

In the case of `CCCCCC=CCC=CCCCCCCC(C)C(=O)OCC` (stereo not shown) [182N1], in assay [1], the “Cholesterol in serum (top number)” value was determined as 92%, the “Glucose in serum (bottom number)” value amounted to 90% and the “Triglycerides in serum (central number)” value is recorded as 93%. For the same molecule, the “Levels of apoA-I” value in assay [2] is given as 159%. Also, the pIC50 in the assay with lung cancer cells A549 was 3.48. Besides, the pIC50 in assay [3] is 3.61. The same molecule yielded a Blood pressure in assay [4] of 187 mm Hg. The molecule further showed a pIC50 in assay [5] of 3.53.
